± gives the expanded uncertainty stated by the source.
Assay: molar heat capacity at constant volume; xn = mol fraction of the nth substance listed
Details: Fluid (supercritical or subcritical phases), isochoric heat capacity, x1 = 0.2607

N [ammonia] + O
Details	molar heat capacity at constant volume [J/K/mol]
605.3 K, Mass density=329 kg/m3	82.4 ± 3.3
605.39 K, Mass density=147.43 kg/m3	55.23 ± 2.2
605.39 K, Mass density=329 kg/m3	83.73 ± 3.4
605.47 K, Mass density=147.43 kg/m3	52.57 ± 2.1
605.56 K, Mass density=329 kg/m3	84.16 ± 3.4
605.64 K, Mass density=147.43 kg/m3	54.75 ± 2.2
605.73 K, Mass density=147.43 kg/m3	55.07 ± 2.2
605.82 K, Mass density=147.43 kg/m3	55.82 ± 2.2
605.9 K, Mass density=147.43 kg/m3	54.48 ± 2.2
606.33 K, Mass density=195.99 kg/m3	62.19 ± 2.5
606.41 K, Mass density=195.99 kg/m3	62.19 ± 2.5
606.41 K, Mass density=376.89 kg/m3	80.52 ± 3.2
606.5 K, Mass density=195.99 kg/m3	62.44 ± 2.5
606.58 K, Mass density=376.89 kg/m3	81.48 ± 3.3
606.66 K, Mass density=195.99 kg/m3	62.01 ± 2.5
606.67 K, Mass density=376.89 kg/m3	83.04 ± 3.3
606.75 K, Mass density=195.99 kg/m3	62.31 ± 2.5
606.76 K, Mass density=376.89 kg/m3	82.08 ± 3.3
606.84 K, Mass density=195.99 kg/m3	62.12 ± 2.5
606.84 K, Mass density=376.89 kg/m3	79.68 ± 3.2
607.69 K, Mass density=342.18 kg/m3	76.36 ± 3.1
607.78 K, Mass density=309.95 kg/m3	83.5 ± 3.3
607.78 K, Mass density=342.18 kg/m3	81.1 ± 3.3
607.86 K, Mass density=342.18 kg/m3	78.56 ± 3.2
607.86 K, Mass density=376.89 kg/m3	79.35 ± 3.2
607.87 K, Mass density=309.95 kg/m3	80.85 ± 3.2
607.95 K, Mass density=309.95 kg/m3	86.43 ± 3.5
607.95 K, Mass density=342.18 kg/m3	76.04 ± 3.1
607.95 K, Mass density=376.89 kg/m3	80.25 ± 3.2
608.04 K, Mass density=309.95 kg/m3	82.99 ± 3.3
608.04 K, Mass density=376.89 kg/m3	78.87 ± 3.2
608.12 K, Mass density=376.89 kg/m3	77.04 ± 3.1
608.19 K, Mass density=160.07 kg/m3	52.92 ± 2.1
608.21 K, Mass density=309.95 kg/m3	84.23 ± 3.4
608.21 K, Mass density=376.89 kg/m3	75.92 ± 3
608.29 K, Mass density=376.89 kg/m3	79.42 ± 3.2
608.38 K, Mass density=376.89 kg/m3	76.18 ± 3.1
608.4 K, Mass density=160.07 kg/m3	53.56 ± 2.1
608.54 K, Mass density=160.07 kg/m3	51.75 ± 2.1
608.63 K, Mass density=160.07 kg/m3	53.4 ± 2.1
608.72 K, Mass density=160.07 kg/m3	52.1 ± 2.1
608.81 K, Mass density=160.07 kg/m3	52.48 ± 2.1
608.9 K, Mass density=160.07 kg/m3	52.35 ± 2.1
609.06 K, Mass density=195.99 kg/m3	62.14 ± 2.5
609.14 K, Mass density=195.99 kg/m3	62.71 ± 2.5
609.23 K, Mass density=195.99 kg/m3	62.28 ± 2.5
609.3 K, Mass density=195.99 kg/m3	63.31 ± 2.5
609.4 K, Mass density=195.99 kg/m3	62.65 ± 2.5
609.4 K, Mass density=320.33 kg/m3	87.43 ± 3.5
609.48 K, Mass density=195.99 kg/m3	63.19 ± 2.5
609.48 K, Mass density=294.44 kg/m3	91.17 ± 3.6
609.48 K, Mass density=320.33 kg/m3	84.26 ± 3.4
609.57 K, Mass density=294.44 kg/m3	89.27 ± 3.6
609.57 K, Mass density=320.33 kg/m3	85.97 ± 3.4
609.65 K, Mass density=294.44 kg/m3	87.71 ± 3.5
609.65 K, Mass density=308.35 kg/m3	76.86 ± 3.1
609.65 K, Mass density=320.33 kg/m3	80.69 ± 3.3
609.74 K, Mass density=195.99 kg/m3	62.31 ± 2.5
609.74 K, Mass density=294.44 kg/m3	89.93 ± 3.6
609.74 K, Mass density=320.33 kg/m3	83.43 ± 3.3
609.82 K, Mass density=294.44 kg/m3	89.02 ± 3.6
609.82 K, Mass density=308.35 kg/m3	74.71 ± 3
609.91 K, Mass density=308.35 kg/m3	78.67 ± 3.2
609.99 K, Mass density=308.35 kg/m3	77.82 ± 3.1
610.08 K, Mass density=308.35 kg/m3	76.77 ± 3.1
610.17 K, Mass density=312.91 kg/m3	84.03 ± 3.4
610.25 K, Mass density=312.91 kg/m3	83.02 ± 3.3
610.33 K, Mass density=312.91 kg/m3	81.99 ± 3.3
610.42 K, Mass density=311.19 kg/m3	84.41 ± 3.4
610.42 K, Mass density=312.91 kg/m3	81.69 ± 3.3
610.51 K, Mass density=311.19 kg/m3	81.05 ± 3.2
610.51 K, Mass density=312.91 kg/m3	81.85 ± 3.3
610.53 K, Mass density=311.19 kg/m3	82.17 ± 3.3
610.59 K, Mass density=307.35 kg/m3	83.84 ± 3.4
610.59 K, Mass density=312.91 kg/m3	80.77 ± 3.2
610.68 K, Mass density=307.35 kg/m3	83.61 ± 3.3
610.76 K, Mass density=307.35 kg/m3	85.1 ± 3.4
610.77 K, Mass density=311.19 kg/m3	80 ± 3.2
610.84 K, Mass density=311.19 kg/m3	82.42 ± 3.3
610.85 K, Mass density=307.35 kg/m3	81.92 ± 3.3
610.93 K, Mass density=307.35 kg/m3	80.84 ± 3.2
611.02 K, Mass density=301.94 kg/m3	85.7 ± 3.4
611.02 K, Mass density=307.35 kg/m3	83.41 ± 3.3
611.1 K, Mass density=301.94 kg/m3	86.38 ± 3.5
611.1 K, Mass density=307.35 kg/m3	81.26 ± 3.2
611.19 K, Mass density=299.79 kg/m3	81.78 ± 3.3
611.23 K, Mass density=301.94 kg/m3	84.69 ± 3.4
611.27 K, Mass density=299.79 kg/m3	82.1 ± 3.3
611.35 K, Mass density=230.31 kg/m3	80.27 ± 3.2
611.35 K, Mass density=301.94 kg/m3	83.16 ± 3.3
611.36 K, Mass density=299.79 kg/m3	80.3 ± 3.2
611.44 K, Mass density=230.31 kg/m3	81.01 ± 3.2
611.44 K, Mass density=299.79 kg/m3	81.57 ± 3.3
611.44 K, Mass density=301.94 kg/m3	83.38 ± 3.3
611.52 K, Mass density=230.31 kg/m3	77.59 ± 3.1
611.53 K, Mass density=299.79 kg/m3	80.94 ± 3.2
611.57 K, Mass density=230.31 kg/m3	78.33 ± 3.1
611.61 K, Mass density=299.79 kg/m3	79.86 ± 3.2
611.61 K, Mass density=301.94 kg/m3	85.13 ± 3.4
611.8 K, Mass density=230.31 kg/m3	77.07 ± 3.1
612.29 K, Mass density=342.18 kg/m3	78.23 ± 3.1
612.46 K, Mass density=376.89 kg/m3	76.4 ± 3.1
612.55 K, Mass density=342.18 kg/m3	77.21 ± 3.1
612.55 K, Mass density=376.89 kg/m3	78.49 ± 3.1
612.63 K, Mass density=342.18 kg/m3	78.71 ± 3.1
612.63 K, Mass density=376.89 kg/m3	74.83 ± 3
612.8 K, Mass density=342.18 kg/m3	78.26 ± 3.1
612.8 K, Mass density=376.89 kg/m3	75.58 ± 3
612.89 K, Mass density=376.89 kg/m3	77.5 ± 3.1
615.18 K, Mass density=160.07 kg/m3	57.18 ± 2.3
615.27 K, Mass density=160.07 kg/m3	57.36 ± 2.3
615.35 K, Mass density=160.07 kg/m3	59.17 ± 2.4
615.52 K, Mass density=160.07 kg/m3	57.77 ± 2.3
615.61 K, Mass density=160.07 kg/m3	57.15 ± 2.3
615.69 K, Mass density=160.07 kg/m3	58.32 ± 2.3
615.78 K, Mass density=160.07 kg/m3	59.81 ± 2.4
615.86 K, Mass density=311.19 kg/m3	80.59 ± 3.2
615.94 K, Mass density=311.19 kg/m3	82.26 ± 3.3
615.94 K, Mass density=312.91 kg/m3	84.14 ± 3.4
616.03 K, Mass density=311.19 kg/m3	78.26 ± 3.1
616.03 K, Mass density=312.91 kg/m3	81.62 ± 3.3
616.2 K, Mass density=309.95 kg/m3	81.9 ± 3.3
616.2 K, Mass density=311.19 kg/m3	79.08 ± 3.2
616.2 K, Mass density=312.91 kg/m3	78.12 ± 3.1
616.24 K, Mass density=329 kg/m3	79.1 ± 3.2
616.28 K, Mass density=309.95 kg/m3	81.26 ± 3.2
616.29 K, Mass density=312.91 kg/m3	77.14 ± 3.1
616.37 K, Mass density=309.95 kg/m3	80.5 ± 3.2
616.37 K, Mass density=311.19 kg/m3	78.05 ± 3.1
616.37 K, Mass density=312.91 kg/m3	80.69 ± 3.2
616.45 K, Mass density=309.95 kg/m3	78.62 ± 3.2
616.45 K, Mass density=329 kg/m3	75.46 ± 3
616.54 K, Mass density=329 kg/m3	77.16 ± 3.1
616.55 K, Mass density=309.95 kg/m3	82.93 ± 3.3
616.62 K, Mass density=329 kg/m3	76.27 ± 3.1
616.69 K, Mass density=299.79 kg/m3	82.29 ± 3.3
616.71 K, Mass density=329 kg/m3	76.77 ± 3.1
616.84 K, Mass density=299.79 kg/m3	80.34 ± 3.2
616.95 K, Mass density=299.79 kg/m3	81.41 ± 3.2
617.05 K, Mass density=299.79 kg/m3	82.13 ± 3.3
617.13 K, Mass density=299.79 kg/m3	79.98 ± 3.2
617.31 K, Mass density=299.79 kg/m3	80.5 ± 3.2
617.46 K, Mass density=299.79 kg/m3	80.93 ± 3.2
618.23 K, Mass density=342.18 kg/m3	78.08 ± 3.1
618.32 K, Mass density=342.18 kg/m3	77.48 ± 3.1
618.5 K, Mass density=342.18 kg/m3	78.3 ± 3.1
618.57 K, Mass density=342.18 kg/m3	78.49 ± 3.1
618.66 K, Mass density=342.18 kg/m3	76.77 ± 3.1
619.76 K, Mass density=297.6 kg/m3	76.26 ± 3.1
619.93 K, Mass density=297.6 kg/m3	75.1 ± 3
620.01 K, Mass density=297.6 kg/m3	77.64 ± 3.1
620.1 K, Mass density=297.6 kg/m3	76.82 ± 3.1
624.74 K, Mass density=160.07 kg/m3	61.66 ± 2.5
624.83 K, Mass density=160.07 kg/m3	63.49 ± 2.5
624.99 K, Mass density=160.07 kg/m3	62.99 ± 2.5
625.08 K, Mass density=160.07 kg/m3	60.95 ± 2.4
625.16 K, Mass density=160.07 kg/m3	64.25 ± 2.6
633.07 K, Mass density=160.07 kg/m3	67.64 ± 2.7
633.16 K, Mass density=160.07 kg/m3	68.71 ± 2.8
633.33 K, Mass density=160.07 kg/m3	67.18 ± 2.7
633.49 K, Mass density=160.07 kg/m3	68.49 ± 2.7
633.58 K, Mass density=160.07 kg/m3	67.41 ± 2.7
633.66 K, Mass density=160.07 kg/m3	67.98 ± 2.7

From the NIST ThermoML archive (doi:10.1007/s10765-009-0602-6)
